Laboratory results: publication PMC12344774, “Ferrocenyl Quinoline-Benzimidazole Hybrids: A Multistage Strategy to Combat Drug-Resistant Malaria” (Inorganic Chemistry, 2025)
Like-named read-outs stand apart in the source and are kept apart here.

Tests used:
[1] = system: PfK1; assay: microbe, parasite or virus in culture; assay type: cell-based, Plasmodium falciparum; details: read-out: PfK1 IC50 ± SEM
Source text: (§1) This side chain is also present in the well-known antiplasmodial agent, FQ.
(§2) Test samples were screened in technical duplicate or triplicate, for three or four biological replicates, for their in vitro blood stage antiplasmodial activity against both the drug-sensitive (NF54) and multidrug-resistant (K1) strains of . Continuous in vitro cultures of asexual erythrocyte stages of were maintained using a modified method of Trager and Jensen. A quantitative assessment of the in vitro antiplasmodial activity was determined via the parasite lactate dehydrogenase (pLDH) assay, using a modified method described by Makler and Hinrichs.
(§3) The test samples were prepared to a 20 mg/mL stock solution in 100% DMSO. Stock solutions were stored at −20 °C. Further dilutions were prepared in complete medium on the day of the experiment. […] Chloroquine diphosphate (CQDP) was used as the reference drug in all experiments. Test samples were tested at a starting concentration of either 100 μg/mL, 50 μg/mL, 10 μg/mL, or 1 μg/mL, which was then serially diluted 2-fold, in complete medium, to give 10 concentrations. The same dilution technique was used for all samples. […] The IC50 values were obtained from full dose–response curves, using a nonlinear dose–response curve fitting analysis, via GraphPad Prism v.5 software.

[2] = system: β-hematin formation; assay: NP-40 detergent-mediated β-hematin formation inhibition assay (cell-free); assay type: biochemical; details: NP-40, pH 4.8, 5 h, 37 °C, read-out: β-hematin formation inhibition IC50 ± SEM
Source text: The ability of a compound to inhibit Hz formation can be predicted using the biomimetic cell-free NP40 detergent-mediated β-hematin formation inhibition assay. , This assay mimics the conditions in the acidic DV of the parasite and relies on the binding of pyridine to uncrystallized free heme to detect the inhibition of β-hematin formation using UV–vis spectroscopy (with absorbance measured at 405 nm). , Consequently, the ability of the ferrocenyl quinoline-benzimidazole hybrids (C1–C5) to inhibit β-hematin (synthetic Hz) formation was investigated as a potential mechanism of antiplasmodial action.
The β-hematin formation inhibition assay was modified from the method reported by Sandlin et al. , Stock solutions of the respective test compounds were prepared to 10 mM, in 100% DMSO, with the exception of CQ (used in the salt form, CQDP), which was prepared in Milli-Q water. […] NP-40 is a detergent used to mediate the formation of β-hematin. The solution in column 12 was then serially diluted 2-fold, through to column 2, to give a total of 11 concentrations. Column 1 contained 0 μM of the test compound and thus served as a blank. […] A 178.8 μL aliquot of this hematin suspension was added to 20.0 mL of a 2 M acetate buffer (pH = 4.8) and 100 μL of this solution added to each well. The plates were then covered and incubated for 5 h, at 37 °C. The assay was analyzed using the pyridine-ferrochrome method developed by Ncokazi and Egan. A solution containing water/acetone/2 M HEPES buffer (pH 7.4)/pyridine, in a v/v ratio of 2/2/1/5, was prepared and 32 μL was added to all wells, followed by 60 μL of acetone. The absorbance values were then measured at 405 nm, the results plotted using GraphPad Prism (v5), and the IC50 values obtained using a sigmoidal dose–response curve fitting analysis.

[3] = system: PfNF54; assay: In vitro ABS antiplasmodial activity, pLDH assay, drug-sensitive NF54; assay type: cell-based, Plasmodium falciparum; details: read-out: PfNF54 IC50 ± SEM
Source text: as §1, §2, §3

[4] = Cyclic voltammetry of the ferrocene/ferrocenium couple; assay type: physicochemical; details: for Reversibility of the ferrocene/ferrocenium couple: DCM/0.1 M TBAP system; for Ipc/Ipa / ΔE / Anodic peak potential Epa / Cathodic peak potential Epc / Half-wave potential E1/2: scan rate 100 mV/s, CH2Cl2, 0.1 M TBAP; for Anodic peak potential Epa / Cathodic peak potential Epc / Half-wave potential E1/2: vs Ag/AgCl
Protocol: It has been proposed that the oxidation of ferrocene (Fe(C5H5)2) to the ferrocenium cation (Fe(C5H5)2 ^+) is a reversible one-electron transfer process. […] This prompted the investigation into the electrochemical properties of the Fe(C5H5)2/Fe(C5H5)2 ^+ couple in complexes C1–C5, using cyclic voltammetry. FQ was used as the reference, as it is considered the benchmark for all newly developed ferrocenyl-based antiplasmodials.
Nuclear magnetic resonance (NMR) spectra were recorded on a Bruker XR600 MHz spectrometer (^1H at 599.95 MHz and ^13C{^1H} at 151.0 MHz), a Bruker […] (^1H at 400.22 MHz and ^13C{^1H} at 100.65 MHz), or a Varian Mercury 300 (^1H at 300.08 MHz) spectrometer. These were equipped with a Bruker Biospin GmbH casing and sample injector at 30 °C and tetramethylsilane (TMS) was used as the internal standard. Coupling constants are reported in Hz and chemical shifts are reported in ppm relative to residual solvent signals. Infrared (IR) spectroscopy was performed on a PerkinElmer Spectrum 100 FT-IR spectrometer, using attenuated total reflectance (ATR), with vibrations measured in units of cm^–1. Cyclic voltammetric measurements were carried out at ambient temperature under an inert argon atmosphere using a three-electrode system on a BASi Epsilon Eclipse potentiostat/galvanostat electrochemical workstation. The C-3 cell stand, equipped with a glassy carbon working electrode, Ag/AgCl (saturated NaCl) reference electrode, and a Pt wire auxiliary electrode were used to carry out electrochemical measurements. All experiments were carried out in anhydrous dichloromethane containing 0.10 M tetra-n-butylammonium perchlorate (TBAP) as the supporting electrolyte.

[5] = Hydroxyl radical (ROS) generation with H2O2, DCFH2 fluorescent probe; details: 200 μM in 1:4 DMSO/PBS, H2O2 and H2DCF added, 30 min
Source text: Fluorogenic redox-sensitive probes are often employed to measure the presence of ROS, due to their low cost, ease of use, and nontoxicity, allowing for spectrofluorimetric measurements. 2′,7′-Dichlorodihydrofluorescein diacetate (DCFH2-DA) is the most widely used fluorogenic probe. Cleavage of the acetate groups, through alkaline hydrolysis, generates 2′,7′-dichlorodihydrofluorescein (DCFH2), which in the presence of oxidants, yields the highly fluorescent 2′,7′-dichlorofluorescein (DCF, λem = 523 nm). The DCFH2 probe reacts with an array of oxidants, making it an ideal indicator of general oxidative stress. […] The presence of these radicals was confirmed by monitoring the fluorescence over time (Figure ). […].
Stock solutions of DCFH2-DA were prepared to 1 mM in 100% DMSO and stored at −20 °C in the dark until use. The deacetylation of DCFH2-DA involved adding 2 μL of a 0.5 M NaOH solution to 200 μL of the 1 mM DCFH2-DA stock solution. The solution was mixed for 30 min, in the dark, at room temperature and then quenched with 800 μL of PBS buffer to obtain a 200 μM H2DCF 1:4 DMSO/PBS solution mixture.
[…]. The fluorometer was blanked using a 1:4 DMSO/PBS solution mixture. To identify hydroxyl radical production, 2 μL of a 0.5% H2O2 solution was added to 900 μL of the 200 μM complex solution in a cuvette at 25 °C. 100 μL of the prepared H2DCF solution (200 μM) was quickly added, and the readings recorded at 530 nm (emission wavelength), at 2 min intervals, over 30 min.

[6] = system: Mature gametocytes (>95% stage V); assay: microbe, parasite or virus in culture; assay type: cell-based, Plasmodium falciparum; details: for % Inhibition, mature gametocytes: maximum inhibition at 10 μM, 48 h drug pressure; for inhibition at 5 µM: Plasmodium falciparum, read-out: % Inhibition, mature gametocytes (controls)
Protocol: (§4) Compounds are diluted 3-fold in at least a 9-point serial dilution series starting at 20 μM, with a nonlethal DMSO concentration of <0.1% maintained. Luciferase activity was determined in 30 μL parasite lysates by adding 30 μL luciferin substrate (Promega Luciferase Assay System) at room temperature and detection of resultant bioluminescence at an integration constant of 10 s with the GloMax-Multi + Detection System with Instinct Software. Methylene blue (5 μM) and the clinical antimalarial candidate MMV390048 (5 μM) were used as controls. IC50 values were determined in GraphPad Prism using a nonlinear regression fit with variable slope (4-parameter) on the dose–response data.
(§5) Assay quality parameters are evaluated for each assay, including Z′-factors (data quality compared to reproducibility using signal, noise, and background parameters; accepted metric >0.6), regression (accepted r 2 > 0.9); >80% viable parasites (top plateau); <20% killed parasites (bottom plateau), hill slope ∼1.

[7] = system: Immature gametocytes (>90% stage II/III); assay: microbe, parasite or virus in culture; assay type: cell-based, Plasmodium falciparum; details: for % Inhibition, immature gametocytes: maximum inhibition at 10 μM, 48 h drug pressure; for inhibition at 5 µM: Plasmodium falciparum, read-out: % Inhibition, immature gametocytes (controls)
Protocol: as §4, §5

[8] = system: CHO cell line
Protocol: (§6) The samples were tested over 48 h against the Chinese hamster ovarian (CHO) cell line to determine general cytotoxicity. […] Quantitative assessment of toxic activity in vitro was determined via the MTT assay using the method described. Cell viability was determined colorimetrically using the breakdown of a dye by enzymes of the electron transport chain, taking place in the mitochondria of metabolically active living cells, as a marker for survival.
(§7) Compounds were tested in triplicate on a single occasion against these cells using the MTT assay. The test samples were prepared to a 10 mM stock solution, in 100% DMSO, and stored at −20 °C until use. Samples were tested as a suspension if not completely dissolved. Further dilutions to the desired starting concentration were freshly prepared in growth media at the start of the experiment.
(§8) Cells were plated to a density of 10^5 cells/well in 96-well plates and allowed to attach for 24 h. […] After 44 h MTT was added, and the plates were read 4 h later at 540 nm on a spectrophotometer following the addition of 100 μL of DMSO and gentle plate-shaking to solubilize and visualize the dye. Survival was plotted against concentration, and the IC50 values were obtained using a nonlinear dose–response curve fitting analysis via the Dotmatics software platform.

[9] = system: CHO cell line; assay: Cytotoxicity, MTT assay; details: selectivity index
Protocol: as §6, §7, §8

[10] = system: K1; details: MDR K1; footnote e: Results from ref (number not given); read-out: PfK1 IC50 ± SEM; cited from earlier work
[11] = system: NF54; details: drug-sensitive NF54; footnote e: Results from ref (number not given); read-out: PfNF54 IC50 ± SEM; cited from earlier work
[12] = MDR K1, ABS, pLDH, 48 h incubation
[13] = drug-sensitive NF54, ABS, pLDH, 48 h incubation

| Compound | IC50 ([1]; Plasmodium falciparum, 48 h) | IC50 [2] | IC50 ([3]; Plasmodium falciparum, NF54, 48 h) | Reversibility of the ferrocene/ferrocenium couple [4] | Ipc/Ipa [4] | ΔE [4] | Anodic peak potential Epa [4] | Cathodic peak potential Epc [4] | Half-wave potential E1/2 [4] | IC50 [1, 12] | Hydroxyl radical generation (fluorescence intensity over time) [5] | % Inhibition, mature gametocytes [6] | % Inhibition, immature gametocytes [7] | CC50 [8] | IC50 [3, 13] | SI (CC50 CHO/IC50 NF54) [9] | IC50 [10] | IC50 [11] | inhibition at 5 µM [6] | inhibition at 5 µM [7] |
| --- | --- | --- | --- | --- | --- | --- | --- | --- | --- | --- | --- | --- | --- | --- | --- | --- | --- | --- | --- | --- |
| CCN(CC)CCCC(C)Nc1ccnc2cc(Cl)ccc12 (stereo not shown) [CQ, chloroquine, reference compound] | 170 ± 10 nM | 11 ± 0.87 µM | 15 ± 1 nM |  |  |  |  |  |  |  |  |  |  |  |  |  |  |  |  |  |
| Cc1ccc2c(c1)nc(-[c-]1cccc1)n2CCNCCNc1ccnc2cc(Cl)ccc12.[Fe+2].c1cc[cH-]c1 [Complex C2, N1-(7-Chloroquinolin-4-yl)-N2-(2-(5-methyl-2-ferrocenyl-1H-benzo[d]imidazole-1-yl)ethyl)ethane-1,2-diamine] |  | 4.47 µM |  | chemically and electrochemically reversible | 1.03 | 0.133 V | 0.651 V | 0.518 V | 0.584 V | 9.4 ± 0.9 nM | no changes in the fluorescence intensity | 32% | 75% | > 50 µM | 38 ± 2 nM |  |  |  |  |  |
| Cc1ccc2c(c1)nc(-[c-]1cccc1CN(C)C)n2CCNCCNc1ccnc2cc(Cl)ccc12.[Fe+2].c1cc[cH-]c1 (stereo not shown) [Complex C4, N1-(7-Chloroquinolin-4-yl)-N2-(2-(5-methyl-2-(2-N,N-dimethylaminomethyl)ferrocenyl-1H-benzo[d]imidazole-1-yl)ethyl)ethane-1,2-diamine] |  | 4.9 µM |  | chemically and electrochemically irreversible |  |  | 0.662 V |  |  | 170 ± 20 nM | produce hydroxyl radicals | 72% | 59% | 29.8 ± 0.5 µM | 38 ± 3 nM | 784.2 |  |  |  |  |
| Cc1ccc2c(c1)nc(-[c-]1cccc1)n2CCN(CCNc1ccnc2cc(Cl)ccc12)[c-]1cccc1.[Fe+2].[Fe+2].c1cc[cH-]c1.c1cc[cH-]c1 [Complex C5, N1-Ferrocenyl-N2-(7-Chloroquinolin-4-yl)-N1-(2-(5-methyl-2-ferrocenyl-1H-benzo[d]imidazole-1-yl)ethyl)ethane-1,2-diamine] |  | 37.7 ± 0.77 µM |  | chemically and electrochemically reversible | 1.04 | 0.190 V | 0.632 V | 0.442 V | 0.537 V | 14500 ± 1140 nM | no changes in the fluorescence intensity | 32% | 60% | > 50 µM | 1510 ± 140 nM |  |  |  |  |  |
| CN(C)Cc1ccc[c-]1CNc1ccnc2cc(Cl)ccc12.[Fe+2].c1cc[cH-]c1 (stereo not shown) [FQ, ferroquine, reference compound] |  |  |  | chemically and electrochemically reversible | 1.00 | 0.125 V | 0.613 V | 0.488 V | 0.550 V |  | generate hydroxyl radicals |  |  |  |  |  | 23.9 ± 0.2 nM | 20 ± 3 nM |  |  |
| [Fe+2].c1cc[cH-]c1.c1cc[cH-]c1 [Ferrocene, reference compound] |  |  |  |  | 1.05 | 0.171 V | 0.543 V | 0.372 V | 0.458 V |  | generate hydroxyl radicals |  |  |  |  |  |  |  |  |  |
| CS(=O)(=O)c1ccc(-c2cnc(N)c(-c3ccc(C(F)(F)F)nc3)c2)cc1 [MMV390048, reference compound] |  |  |  |  |  |  |  |  |  |  |  |  |  |  |  |  |  |  | > 93% | > 77% |
| CN(C)c1ccc2nc3ccc(=[N+](C)C)cc-3sc2c1 [Methylene blue, reference compound] |  |  |  |  |  |  |  |  |  |  |  |  |  |  |  |  |  |  | 100% | > 97% |
